{"source": "patent US7018624B2", "about": "“Delivery of poly(ethylene glycol)-modified molecules from degradable hydrogels” (Debio Recherche Pharmaceutique S.A., priority 1996, dated 2006)", "test": "Hydrolysis kinetics of the ester linkages of mPEG-O-(CH2)n-COO-mPEG in buffer, followed by HPLC-GPC", "assay_type": "physicochemical", "protocol": "To precisely measure the hydrolysis kinetics of the ester linkages, water-soluble, non-crosslinked mPEG-O—(CH2)n—COO-MPEG was synthesized as in Example 2. Hydrolysis was carried out in buffer solutions (0.1 M) at different pHs and temperatures, and followed by HPLC-GPC (Ultrahydrogel® 250, Waters)."}
{"substance": "mPEG-O-(CH2)n-COO-mPEG [CM ester linkage]", "values": [{"measurement": "Hydrolysis half lives of the ester", "setting": "pH 5.5", "result": ">150", "unit": "days"}, {"measurement": "Hydrolysis half lives of the ester", "setting": "pH 8.1", "result": 5, "unit": "days"}]}
